Assay results taken from patent US6514761B1, “Methods of using BCL-2 for the therapeutic treatment and prevention of diseases” (The Burnham Institute, priority 1993, dated 2003).

What was measured:
[1] = tested on: in vitro self-assembled nuclei; assay: Cell-free apoptosis assay: nuclei assembled in Xenopus egg extracts with sperm chromatin; parameters: species or system Xenopus laevis
Description: A cell-free assay for assessing Bcl-2 function was developed to rapidly screen compounds for ability to inhibit or enhance Bcl-2 protein function. The assay utilizes in vitro self-assembled nuclei generated by mixing cell extracts derived from Xenopus laevis eggs with isolated sperm chromatin. The nuclei assemble normally but, after about 2 hours, begin to disintegrate. The nuclei appeared contracted and had the same appearance as isolated nuclei that had been treated briefly with an endonuclease. This phenomenon appears to represent apoptosis. Alternatively, isolated hepatocyte nuclei can be substituted for sperm chromatin and mixed with the egg extracts, resulting in the same phenomenon.
To test the effect of Bcl-2 protein on nuclei, lysates were prepared from Sf9 insect cells infected with recombinant baculoviruses encoding either Bcl-2 or an irrelevant protein such as β-galactosidase (β-gal) or the Lck kinase (see Reed et al., Anal. Biochem. 205:70-76 (1992). To confirm that Bcl-2 was expressed in the insect cell lysates, Sf9 insect cells were infected with recombinant Bcl-2 baculovirus or recombinant Lck baculovirus vectors. Infected cells were incubated for three days to allow expression of the gene products, then lysates were obtained and fractionated by SDS-PAGE electrophoresis. Following electrophoresis, proteins were transferred to membrane and probed with an antiserum raised against a synthetic peptide corresponding to part of the predicted amino acid sequence of human Bcl-2. […] Bcl-2 protein comprised about 5-10% of the total extracted protein.
Sf9 cell lysates were added at a 1:90 dilution into the Xenopus extracts or to a final protein concentration of 10 μg/ml (see Newmeyer and Wilson, Meth. Cell Biol. 36:607-634 (1991), which is incorporated herein by reference). […] After about another 40 min of incubation, the nuclei had disintegrated completely (FIG. 9B) and a generally dispersed filamentous background of Hoechst fluorescence remained along with many small spherical or irregularly shaped aggregates of chromatin (not shown). […]

32D-3 cells [2] = assay: Viability of stably transfected 32D-3 cells in culture (trypan blue exclusion); type: cell-based; details: cells expressing the protein, followed over days in culture, versus Neo control
Excerpt: FIG. 2A. Cell viability as determined by trypan blue exclusion (mean +/− standard deviation of 3 determinations). W.T., wild-type Bcl-2; P59S, mutant Bcl-2; Neo, control.
32D-3 cells were stably transfected with expression plasmids containing a G418 antibiotic resistance gene and either a wild-type or mutant human Bcl-2 DNA sequence. The mutant Bcl-2 sequence encodes a variant Bcl-2 protein having a serine substitution for a proline at amino acid position 59 (BCL2/P59S). This amino acid substitution results in a high level of constitutive expression of BCL2/P59S.
Following selection of the cells for G418 resistance, cells were plated and their viability was determined.

AT-3 cells = assay: Sindbis virus-induced death of AT-3 prostate cancer cells (trypan blue exclusion); type: cell-based, rat; details: AT-3 cells infected with pZIP-BCL2, grown with Sindbis virus
Excerpt: FIG. 3. Bcl-2 blocks prostate cancer cell line, AT-3, death induced by Sindbis virus infection. Cell viability as determine by trypan blue exclusion (mean +/− standard deviation of 3 determinations). pZIP-BCL2 or pZIP-NEO are described in FIG. 1B. AT-3-NEO control cells (circles); AT-3-BCL2 cells (squares). Virus infected cells (solid symbols); cells cultured in the absence of virus (open symbols).
A rat prostate cancer cell line, AT-3, was infected with pZIP-BCL2 or pZIP-NEO (see FIG. 1B), then grown in the presence or absence of Sindbis virus. At various times after the addition of Sindbis virus, cells were collected and cell viability was determine using trypan blue exclusion.

PC12 cells = assay: Glutamate-induced death of PC12 cells (MTT dye reduction assay); type: cell-based, rat; details: PC12 cells infected with pZIP-BCL-2; 30 mM glutamate, 24 hours
Description: FIG. 4. Protection of PC12 cells from glutamate-induced death by Bcl-2. Cell viability as determined by MTT dye reduction assay (mean +/− standard deviation of 3 determinations).
The rat pheochromocytoma cell line, PC12, was stably infected with pZIP-BCL-2 or pZIP-NEO (see FIG. 1B), then treated with 30 mM glutamate for 24 hours. Following treatment, cell viability was assessed by MTT dye reduction assay as described in Tada et al., J. Immunol. Meth. 93:157-165 (1986).

32D-3 cells [3] = assay: Survival of transfected 32D-3 cells cultured without growth factor; type: cell-based; details: 32D-3 cells expressing the protein, growth factor deprivation
Excerpt: FIGS. 5A and 5B. Homologs of Bcl-2 prolong survival of 32D-3 cells grown in the absence of Il-3 for various times. Cell viability as determined by the trypan blue exclusion (mean +/− standard deviation of 3 determinations).
FIGS. 6A to 6C. Bcl-2 acts synergistically with Raf-1 to prolong cell survival under conditions of growth factor deprivation. Bcl-2 protein, alone (open circles); activated Raf-1 protein, alone (squares); Bcl-2+Raf-1 proteins (closed circles); no Bcl-2 or Raf-1 protein (triangles).
FIG. 7. A dominant-negative form of the Bcl-2 protein, Bcl-2β, accelerates cell death. Cell viability as determined by trypan blue exclusion. […]
32D-3 cells were stably transfected with expression plasmids containing either a hygromyin (HYG) or a G418 (NEO) antibiotic resistance gene and cDNA encoding either the human Bcl-2 protein, the chicken Bcl-2 protein or the BHRF-1 protein from Epstein Barr Virus (viral homolog of Bcl-2). […] Following transfection, cells were cultured without growth factor for various times and the number of viable cells was determined.
32D-3 cells were stably transfected with expression plasmids producing Bcl-2 protein, activated Raf-1 protein or both Bcl-2 and Raf-1, then cultured under conditions of growth factor deprivation that cause apoptosis. At various times after removing the growth factor from the medium, cells were collected and viability was determined. […]

## Bcl-2: about 26 kDa protein that promotes cell survival by blocking apoptosis; expressed by gene transfer or added as Sf9 lysate
[1]; after 2 hours of incubation, Bcl-2-containing Sf9 lysate added to Xenopus extract
  intact, transport-competent nuclei: about 50%
[1]; after two hours and forty min incubation, Bcl-2-containing Sf9 lysate
  nuclei remaining intact and transport-competent: 42%
[1]; in one hour, Bcl-2-containing lysate
  amount of fluorescent transport substrate imported by nuclei: no gross changes
32D-3 cells [2]
  number of viable cells in culture: did not decrease during the time examined
AT-3 cells
  protection from Sindbis virus-induced cell death: protected from Sindbis virus-induced death
PC12 cells
  protection from glutamate-induced cell death: protected the PC12 cells from glutamate-induced death
32D-3 cells [3]
  cell viability / survival without growth factor: modest effect

B1: chicken Bcl-2: chicken Bcl-2 homolog expressed from cDNA in 32D-3 cells (protein, UniProt Q00709 1-233, looked up)
Apoptosis regulator Bcl-2: MAHPGRRGYDNREIVLKYIHYKLSQRGYDWAAGEDRPPVPPAPAPAAAPAAVAAAGASSHHRPEPPGSAAASEVPPAEGLRPAPPGVHLALRQAGDEFSRRYQRDFAQMSGQLHLTPFTAHGRFVAVVEELFRDGVNWGRIVAFFEFGGVMCVESVNREMSPLVDNIATWMTEYLNRHLHNWIQDNGGWDAFVELYGNSMRPLFDFSWISLKTILSLVLVGACITLGAYLGHK
32D-3 cells [3]
  cell viability / survival without growth factor: nearly as effective as the human Bcl-2
